Patent US12344626B2, “Pharmaceutical compounds and therapeutic methods” (RUTGERS, THE STATE UNIVERSITY OF NEW JERSEY, priority 2019, dated 2025)
Entries after “also recorded” stand apart in the source; their conditions may differ.

What was measured:
[1] = Solubility of zinc complexes; format: physicochemical
p53R175H cells = assay: Potency against p53R175H cells in vitro, compared with the monomer from Zn-1; format: cell-based
Method: (§1) Cell growth inhibition assay using human tumor cell lines with different p53 status (wildtype, null, p53-R175H or other zinc binding deficient mutants) are employed to determine if a test compound functions as a zinc metallochaperone to restore wildtype p53 functions. Five thousand cells per well are cultured in 96-well plate to reach the 50% confluence on the second day when treated with serial dilutions of the compounds. Growth is measured by Calcein AM assay after incubation for 72 hours.

[2] = system: p53 target genes p21, PUMA and GDF15; assay: Quantitative PCR of p53 target genes (restoration of wild type transcriptional function); format: cell-based; conditions: for p21, PUMA and GDF15 levels: quantitative PCR
human tumor cell lines = assay: Cell growth inhibition assay (Calcein AM); format: cell-based; conditions: for EC50: Calcein AM, incubation for 3 days; for Fold (Zn-1/compound) / Fold (compound/Zn-1): ratio of EC50s
Method: as §1
The cell growth inhibition assay was performed by Calcein AM assay (Trevigen). Five thousand cells per well were cultured in 96-well plate to reach the 50% confluence on the second day when treated with serial dilutions of the compounds. Growth was measured by Calcein AM assay (Trevigen) and Victor Plate reader instrument (PerkinElmer) after incubation for 3 days.

COX1(h) = biological target: T1, COX1(h) (Homo sapiens, UniProt P23219); assay: CEREP-44 Safety Screen: COX1; format: biochemical; design: dose or concentration left out as unconfirmed
T1 construct: Eurofins (Cerep) SafetyScreen44 panel, contract screen P270

5-HT2B = biological target: T2, 5-HT2B (Homo sapiens, UniProt P41595); assay: CEREP-44 Safety Screen: 5-HT2B; format: binding; design: dose or concentration left out as unconfirmed
T2 construct: Eurofins (Cerep) SafetyScreen44 panel, contract screen P270

mutant p53 [3] = biological target: T3, mutant p53 (Homo sapiens, UniProt P04637, R175H); assay: Cell growth inhibition after mutant p53 knock-down using siRNA; format: cell-based; conditions: mutant p53 knocked down using an siRNA
T3 construct: The p53-R175H cells (e.g. TOV112D) cultured in DMEM+10% FBS are treated with a test compound; endogenous in cells; host or cells: p53-R175H cells (e.g. TOV112D)

mutant p53 [4] = biological target: T3, mutant p53; assay: Immunofluorescent staining with p53 conformation specific antibodies (PAB240, PAB1620); format: cell-based; conditions: PAB 1620 (wild type specific)
Method: An immunofluorescent staining using p53 conformation specific antibodies is used to determine if a test compound could induce the mutant p53 protein refolding to a wildtype conformation. The p53-R175H cells (e.g. TOV112D) cultured in DMEM+10% FBS are treated with a test compound for 6 hours, then fixed and stained with the antibodies PAB1620 (recognizing WT conformation) and PAB240 (recognizing misfolded/unfolded conformation) respectively.

COX2(h) = biological target: T4, COX2(h) (Homo sapiens, UniProt P35354); assay: CEREP-44 Safety Screen: COX2; format: biochemical; design: dose or concentration left out as unconfirmed
T4 construct: Eurofins (Cerep) SafetyScreen44 panel, contract screen P270
T4 sequence (P35354 18-604): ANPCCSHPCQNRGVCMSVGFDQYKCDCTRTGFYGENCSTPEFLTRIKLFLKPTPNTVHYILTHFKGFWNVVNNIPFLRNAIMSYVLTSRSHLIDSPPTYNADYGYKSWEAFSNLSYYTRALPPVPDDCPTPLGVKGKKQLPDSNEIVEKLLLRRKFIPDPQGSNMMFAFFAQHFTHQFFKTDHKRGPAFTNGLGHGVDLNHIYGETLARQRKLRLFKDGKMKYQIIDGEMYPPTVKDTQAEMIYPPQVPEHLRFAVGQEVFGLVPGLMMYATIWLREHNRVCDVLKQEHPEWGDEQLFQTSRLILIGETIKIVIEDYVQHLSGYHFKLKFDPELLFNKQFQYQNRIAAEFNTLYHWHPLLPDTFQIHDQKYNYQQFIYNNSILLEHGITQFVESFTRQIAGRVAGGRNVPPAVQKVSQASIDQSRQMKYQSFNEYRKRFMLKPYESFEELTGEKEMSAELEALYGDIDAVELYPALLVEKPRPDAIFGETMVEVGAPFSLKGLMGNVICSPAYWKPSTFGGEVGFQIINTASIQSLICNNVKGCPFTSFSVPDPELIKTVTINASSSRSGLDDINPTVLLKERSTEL

T2 sequence (P41595 whole entry): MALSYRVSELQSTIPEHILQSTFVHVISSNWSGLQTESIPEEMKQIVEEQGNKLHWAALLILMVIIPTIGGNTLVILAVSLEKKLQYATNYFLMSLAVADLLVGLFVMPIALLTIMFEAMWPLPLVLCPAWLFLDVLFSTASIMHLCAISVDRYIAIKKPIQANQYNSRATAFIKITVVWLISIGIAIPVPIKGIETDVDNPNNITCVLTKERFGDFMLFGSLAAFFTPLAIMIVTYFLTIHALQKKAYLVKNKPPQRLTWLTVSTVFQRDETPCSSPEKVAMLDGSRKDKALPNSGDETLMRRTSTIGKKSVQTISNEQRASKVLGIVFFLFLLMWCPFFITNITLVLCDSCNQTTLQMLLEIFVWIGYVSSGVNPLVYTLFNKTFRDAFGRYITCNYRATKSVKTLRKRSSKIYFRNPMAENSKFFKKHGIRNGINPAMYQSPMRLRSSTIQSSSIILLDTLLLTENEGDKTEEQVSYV
T1 sequence (P23219 24-599): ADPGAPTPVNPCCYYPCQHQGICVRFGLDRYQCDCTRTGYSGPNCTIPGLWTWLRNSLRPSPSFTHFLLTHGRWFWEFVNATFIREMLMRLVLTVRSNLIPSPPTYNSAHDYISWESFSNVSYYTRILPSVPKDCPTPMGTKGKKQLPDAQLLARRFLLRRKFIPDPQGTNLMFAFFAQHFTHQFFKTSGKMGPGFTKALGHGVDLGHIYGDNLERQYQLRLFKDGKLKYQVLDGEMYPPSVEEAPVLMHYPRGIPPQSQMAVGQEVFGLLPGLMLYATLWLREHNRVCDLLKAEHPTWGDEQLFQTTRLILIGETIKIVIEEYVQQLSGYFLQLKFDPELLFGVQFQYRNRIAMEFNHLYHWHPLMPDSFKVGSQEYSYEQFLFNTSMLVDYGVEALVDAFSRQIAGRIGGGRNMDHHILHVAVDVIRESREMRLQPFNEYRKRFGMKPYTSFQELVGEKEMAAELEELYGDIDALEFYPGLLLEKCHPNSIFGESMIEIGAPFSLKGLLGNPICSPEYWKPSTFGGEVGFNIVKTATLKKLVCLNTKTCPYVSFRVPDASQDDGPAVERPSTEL

For `C/C(=N\NC(=S)N1CCC1)c1ccccn1` [ZMC-1, reference compound], the “Solubility DMSO (3 mg/ml)” value ([1]; DMSO 4 mg/ml column, cell annotated (3 mg/ml)) was “Yes”.
With `C/C(=N\NC(=S)N1CCC1)c1ccccn1` [ZN-1, reference compound] the “More potent than the monomer from Zn-1” value (p53R175H cells) was 3 fold, the “p21, PUMA and GDF15 levels” value [2] was “markedly induced” and the “Solubility DMSO 4 mg/ml” value [1] was “Yes”. For the same compound, the “Solubility DMSO 10 mg/ml” value [1] was “No”, the “Solubility EtOH 1 mg/ml” value [1] was “No” and the “Solubility EtOH 2 mg/ml” value [1] was “No”. For the same compound, the “Solubility H2O:DMSO 1:1 0.5 mg/mL” value [1] was “No” and the EC50 (human tumor cell lines; Homo sapiens, 72 h) was 2.69 nM.
With `COc1ccnc(/C(C)=N/NC(=S)N(C)C)c1.COc1ccnc(/C(C)=N/NC(=S)N(C)C)c1.[Zn]` [Zn-11, Zn[(E)-2-(1-(4-methoxypyridin-2-yl)ethylidene)-N,N-dimethylhydrazine-1-carbothioamide]2] the “More potent than the monomer from Zn-1” value (p53R175H cells) was 209 fold, the “Solubility DMSO 4 mg/ml” value [1] was “Yes” and the “Solubility DMSO 10 mg/ml” value [1] was “Yes”. For the same compound, the “Solubility EtOH 1 mg/ml” value [1] was “Partial”, the “Solubility H2O:DMSO 1:1 0.5 mg/mL” value [1] was “No at 0.5” and the “Qualitative relative solubility in 1:1 DMSO:water” value ([1]; H2O:DMSO 1:1 at 0.5 mg/mL, compared among Zn-8, Zn-11 and Zn-14) was “qualitatively more soluble; also recorded: *Qualitatively slightly more soluble compared with Zn-8 and Zn-14”. The EC50 (human tumor cell lines) was 0.22 nM, the “Fold (Zn-1/compound)” value (human tumor cell lines) was 12.2 and the “Fold (compound/Zn-1)” value (human tumor cell lines) was 0.1.
With `C/C(=N\NC(=S)N(C)C)c1ccc(O[C@H]2CCOC2)cn1.C/C(=N\NC(=S)N(C)C)c1ccc(O[C@H]2CCOC2)cn1.[Zn]` [Zn-15, Zn[(S,E)-N,N-dimethyl-2-(1-(5-((tetrahydrofuran-3-yl)oxy)pyridin-2-yl)ethylidene)hydrazine-1-carbothioamide]2] the EC50 (human tumor cell lines) was 7.08 nM, the “Fold (Zn-1/compound)” value (human tumor cell lines) was 2.6 and the “Fold (compound/Zn-1)” value (human tumor cell lines) was 0.4.
For “Zn[(E)-2-(1-(4-(2-methoxyethoxy)pyridin-2-yl)ethylidene)-N,N-dimethylhydrazine-1-carbothioamide]2 [ZN-8]”, the “COX1(h) % Inh.” value (COX1(h)) was 54.8 % Inh, the “More potent than the monomer from Zn-1” value (p53R175H cells) was 14 fold and the “p21, PUMA and GDF15 levels” value [2] was “markedly induced”. For the same compound, the “Increases of p21, PUMA and GDF15 in p53R175H knock-out cells” value ([2]; same cell line with mutant p53R175H knocked out using CRISPR) was “not observed”, the “Solubility DMSO 4 mg/ml” value [1] was “Yes” and the “Solubility DMSO 10 mg/ml” value [1] was “Yes”. The “Solubility EtOH 1 mg/ml” value [1] was “YES”, the “Solubility EtOH 2 mg/ml” value [1] was “Partial” and the “Solubility H2O:DMSO 1:1 0.5 mg/mL” value [1] was “No”. The EC50 (human tumor cell lines) was 0.37 nM, the “Fold (Zn-1/compound)” value (human tumor cell lines) was 7.3 and the “Fold (compound/Zn-1)” value (human tumor cell lines) was 0.1. The “5-HT2B % Inh.” value (5-HT2B) was 58.7 % Inh, the “Cell growth inhibition after mutant p53 knock-down” value (mutant p53 [3]) was “attenuated by more than a log fold” and the “Wild type conformation change of mutant p53” value (mutant p53 [4]) was “induces a wild type conformation change”. For the same compound, the “COX2(h) % Inh.” value (COX2(h)) was 50.7 % Inh.
For “Zn[(E)-N,N-dimethyl-2-(1-(4-(2-morpholinoethoxy)pyridin-2-yl)ethylidene)hydrazine-1-carbothioamide]2 [ZN-9]”, the “Solubility DMSO 10 mg/ml” value [1] was “Yes”, the “Solubility EtOH 2 mg/ml” value [1] was “Yes” and the EC50 (human tumor cell lines) was 18.1 nM. For the same compound, the “Fold (Zn-1/compound)” value (human tumor cell lines) was 0.1 and the “Fold (compound/Zn-1)” value (human tumor cell lines) was 6.7.
For “Zn[(E)-N,N-dimethyl-2-(1-(4-(2-morpholinoethoxy)pyridin-2-yl)ethylidene)hydrazine-1-carbothioamide]2 bis mesylate salt [ZN-9 Mesylate salt]”, the “Solubility 0.9% Saline” value ([1]; 0.9% Saline) was 5000 to 10000 µg/mL.
